Data as given in ChEMBL document CHEMBL1201862, “PubChem BioAssay data set” (2004).
Activity calls are given as the source filed them.

Tests used:
[1] = molecular target: Luciferin 4-monooxygenase (Photinus pyralis, UniProt P08659); assay: inhibition of purified Photinus pyralis luciferase – biochemical, luminescence, dose response (AID 1891)
[2] = Luminescence Cell-Based Dose Confirmation HTS to Identify Inhibitors of Platelet Dense Granule Release. [Related pubchem assays: 1663 (Primary HTS), 1678 (Summary of Project)]; format: functional
[3] = molecular target: T1, Calpain-2 catalytic subunit (Sus scrofa, UniProt P43367); assay: m-calpain protease blockers, concentration series – biochemical, fluorogenic peptide substrate, dose response (AID 1420); format: functional
T1 sequence (P43367 whole entry): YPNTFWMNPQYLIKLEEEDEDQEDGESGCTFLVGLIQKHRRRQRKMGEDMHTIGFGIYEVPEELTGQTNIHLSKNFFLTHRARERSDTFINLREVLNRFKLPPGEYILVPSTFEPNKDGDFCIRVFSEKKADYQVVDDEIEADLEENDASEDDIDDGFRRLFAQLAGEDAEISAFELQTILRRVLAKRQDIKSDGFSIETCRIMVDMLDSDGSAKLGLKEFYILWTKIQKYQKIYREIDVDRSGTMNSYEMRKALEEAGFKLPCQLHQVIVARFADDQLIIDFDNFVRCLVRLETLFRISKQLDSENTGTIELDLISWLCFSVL

Cytochrome P450 2D6 = Cytochrome P450 2D6 (Homo sapiens, UniProt P10635);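 further: CYP2D6 member of a cytochrome P450 panel assay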
Chain of Cytochrome P450 2D6 (P10635 whole entry): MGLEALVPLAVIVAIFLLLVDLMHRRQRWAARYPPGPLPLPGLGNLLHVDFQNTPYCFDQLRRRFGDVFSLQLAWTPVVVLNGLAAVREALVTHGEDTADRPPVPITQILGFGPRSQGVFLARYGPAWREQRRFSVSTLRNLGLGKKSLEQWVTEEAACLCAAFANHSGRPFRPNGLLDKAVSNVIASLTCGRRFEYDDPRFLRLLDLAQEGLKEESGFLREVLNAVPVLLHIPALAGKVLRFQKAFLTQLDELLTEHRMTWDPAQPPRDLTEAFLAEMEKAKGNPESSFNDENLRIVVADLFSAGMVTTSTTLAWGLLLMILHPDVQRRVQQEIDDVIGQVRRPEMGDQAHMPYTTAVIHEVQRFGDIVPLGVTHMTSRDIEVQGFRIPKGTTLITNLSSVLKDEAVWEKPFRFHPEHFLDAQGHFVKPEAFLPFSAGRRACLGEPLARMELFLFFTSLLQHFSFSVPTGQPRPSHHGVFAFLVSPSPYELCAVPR

Cytochrome P450 1A2 = molecular target: T2, Cytochrome P450 1A2 (Homo sapiens, UniProt P05177);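 further: PubChem cytochrome P450 panel assay, CYP1A2 panel member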
T2 sequence (P05177 whole entry): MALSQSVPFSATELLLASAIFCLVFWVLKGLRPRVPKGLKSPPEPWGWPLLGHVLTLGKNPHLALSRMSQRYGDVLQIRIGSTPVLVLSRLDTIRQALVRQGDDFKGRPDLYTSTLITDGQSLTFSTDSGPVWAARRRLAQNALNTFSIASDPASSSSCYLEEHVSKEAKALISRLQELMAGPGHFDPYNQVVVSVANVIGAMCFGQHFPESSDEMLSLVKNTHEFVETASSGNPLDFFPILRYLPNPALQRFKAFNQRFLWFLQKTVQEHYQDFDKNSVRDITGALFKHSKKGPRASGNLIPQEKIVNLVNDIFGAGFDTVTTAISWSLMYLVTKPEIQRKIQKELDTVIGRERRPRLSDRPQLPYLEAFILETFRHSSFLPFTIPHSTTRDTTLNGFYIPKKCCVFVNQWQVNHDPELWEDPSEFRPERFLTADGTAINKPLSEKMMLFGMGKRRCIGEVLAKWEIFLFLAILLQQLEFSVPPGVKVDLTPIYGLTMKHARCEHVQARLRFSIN

cells = format: functional
Protein skinhead-1 = molecular target: T3, Protein skinhead-1 (Caenorhabditis elegans, UniProt P34707); format: functional
T3 sequence (P34707 whole entry): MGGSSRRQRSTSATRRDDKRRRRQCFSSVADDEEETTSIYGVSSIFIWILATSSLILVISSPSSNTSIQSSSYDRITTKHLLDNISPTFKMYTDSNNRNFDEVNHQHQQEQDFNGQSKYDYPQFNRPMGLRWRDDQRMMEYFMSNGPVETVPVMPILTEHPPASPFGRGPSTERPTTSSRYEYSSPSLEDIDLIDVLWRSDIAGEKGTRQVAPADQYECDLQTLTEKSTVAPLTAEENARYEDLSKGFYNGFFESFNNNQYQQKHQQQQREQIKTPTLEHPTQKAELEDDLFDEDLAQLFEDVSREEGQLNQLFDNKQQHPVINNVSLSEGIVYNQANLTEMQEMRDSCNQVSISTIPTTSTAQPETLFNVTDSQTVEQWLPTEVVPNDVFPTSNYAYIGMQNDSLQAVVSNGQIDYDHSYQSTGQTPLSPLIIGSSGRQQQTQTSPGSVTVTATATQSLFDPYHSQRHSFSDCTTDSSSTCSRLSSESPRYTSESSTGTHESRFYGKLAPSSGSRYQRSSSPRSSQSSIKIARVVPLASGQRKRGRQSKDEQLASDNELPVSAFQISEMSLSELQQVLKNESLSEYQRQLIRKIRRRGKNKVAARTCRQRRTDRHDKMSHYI

Cytochrome P450 3A4 = Cytochrome P450 3A4 (Homo sapiens, UniProt P08684);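 further: CYP3A4 tested as one member of a cytochrome P450 panel screen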
Chain of Cytochrome P450 3A4 (P08684 whole entry): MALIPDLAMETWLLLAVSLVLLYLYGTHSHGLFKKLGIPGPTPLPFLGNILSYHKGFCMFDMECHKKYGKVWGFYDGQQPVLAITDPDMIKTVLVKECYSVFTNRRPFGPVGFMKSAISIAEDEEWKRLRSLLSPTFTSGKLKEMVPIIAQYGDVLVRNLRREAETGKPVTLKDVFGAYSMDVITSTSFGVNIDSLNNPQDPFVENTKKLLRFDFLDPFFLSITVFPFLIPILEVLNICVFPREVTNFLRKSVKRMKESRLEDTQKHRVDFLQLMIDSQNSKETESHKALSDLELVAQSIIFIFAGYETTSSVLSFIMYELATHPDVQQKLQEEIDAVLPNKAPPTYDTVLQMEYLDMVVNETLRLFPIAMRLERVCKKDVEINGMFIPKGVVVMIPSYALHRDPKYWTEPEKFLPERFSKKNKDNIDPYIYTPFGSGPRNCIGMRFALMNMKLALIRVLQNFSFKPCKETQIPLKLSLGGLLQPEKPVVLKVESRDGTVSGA

Cytochrome P450 2C19 = Cytochrome P450 2C19 (Homo sapiens, UniProt P33261); assay: Cytochrome panel assay with activity outcomes. Panel member name: p450-cyp2c19 Compounds with AC50 equal or less than 10 uM are considered active; format: functional
Chain of Cytochrome P450 2C19 (P33261 whole entry): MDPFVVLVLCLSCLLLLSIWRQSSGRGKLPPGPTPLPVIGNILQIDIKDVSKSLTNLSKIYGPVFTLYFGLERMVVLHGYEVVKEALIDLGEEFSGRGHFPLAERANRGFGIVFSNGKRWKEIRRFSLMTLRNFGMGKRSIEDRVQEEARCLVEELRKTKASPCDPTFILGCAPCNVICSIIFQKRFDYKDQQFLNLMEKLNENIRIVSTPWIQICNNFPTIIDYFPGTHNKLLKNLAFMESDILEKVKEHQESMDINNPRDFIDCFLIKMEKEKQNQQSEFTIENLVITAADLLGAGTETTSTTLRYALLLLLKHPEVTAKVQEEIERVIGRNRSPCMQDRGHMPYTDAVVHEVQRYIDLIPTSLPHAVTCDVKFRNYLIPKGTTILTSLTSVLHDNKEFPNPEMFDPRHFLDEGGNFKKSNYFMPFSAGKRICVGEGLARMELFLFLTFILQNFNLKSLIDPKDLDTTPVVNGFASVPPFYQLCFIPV

[4] = molecular target: T4, Corticotropin-releasing factor receptor 2/Corticotropin-releasing factor-binding protein (Homo sapiens, UniProt P24387+Q13324); assay: activators of CRF receptor 2 with binding protein – uHTS hits, confirmation (AID 602473); format: functional; settings: read-out: EC50_Mean
T4 sequence (Q13324 whole entry): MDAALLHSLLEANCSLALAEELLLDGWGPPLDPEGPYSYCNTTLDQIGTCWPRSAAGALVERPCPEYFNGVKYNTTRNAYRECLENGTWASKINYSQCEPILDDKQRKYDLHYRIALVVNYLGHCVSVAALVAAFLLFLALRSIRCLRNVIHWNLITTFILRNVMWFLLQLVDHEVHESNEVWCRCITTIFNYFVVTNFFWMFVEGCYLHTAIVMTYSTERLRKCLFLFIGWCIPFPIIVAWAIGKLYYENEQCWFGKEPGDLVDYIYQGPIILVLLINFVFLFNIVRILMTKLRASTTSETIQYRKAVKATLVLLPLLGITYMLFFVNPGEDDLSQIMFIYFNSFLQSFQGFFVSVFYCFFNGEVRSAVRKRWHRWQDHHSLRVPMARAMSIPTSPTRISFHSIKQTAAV
T4 sequence (P24387 whole entry): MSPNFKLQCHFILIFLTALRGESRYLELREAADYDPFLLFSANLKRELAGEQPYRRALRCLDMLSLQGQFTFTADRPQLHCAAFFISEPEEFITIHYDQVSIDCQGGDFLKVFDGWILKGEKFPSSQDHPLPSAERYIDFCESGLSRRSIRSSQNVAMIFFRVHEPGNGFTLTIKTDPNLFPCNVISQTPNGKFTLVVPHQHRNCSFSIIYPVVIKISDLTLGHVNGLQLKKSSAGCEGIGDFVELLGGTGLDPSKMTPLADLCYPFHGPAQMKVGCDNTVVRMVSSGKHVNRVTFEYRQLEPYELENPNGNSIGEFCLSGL

[5] = tested on: Streptococcus sp. 'group A'; assay: Streptococcus pyogenes SK(-)GAS viability under kanamycin – luminescence, BacTiterGlo, confirmation, counter-screen for streptokinase expression inhibitor project, dose response (AID 1900); format: functional, organism-based
Streptococcus = assay: GAS UMAA2166 growth inhibition – luminescence, BacTiterGlo, counter-screen for streptokinase expression inhibitor project, dose response (AID 1915); format: functional, organism-based;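 further: potency for reduction of bacterial viability or growth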
[6] = reduction of Shn3 3'UTR-driven luciferase in osteoblasts – cell-based, Clone20 osteoblasts, firefly luciferase, cherry-picked, dose response (AID 624132); format: functional;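 further: firefly luciferase luminescence from reporter carrying the Shn3 3'UTR in osteoblasts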

Chain of Luciferin 4-monooxygenase (P08659 whole entry): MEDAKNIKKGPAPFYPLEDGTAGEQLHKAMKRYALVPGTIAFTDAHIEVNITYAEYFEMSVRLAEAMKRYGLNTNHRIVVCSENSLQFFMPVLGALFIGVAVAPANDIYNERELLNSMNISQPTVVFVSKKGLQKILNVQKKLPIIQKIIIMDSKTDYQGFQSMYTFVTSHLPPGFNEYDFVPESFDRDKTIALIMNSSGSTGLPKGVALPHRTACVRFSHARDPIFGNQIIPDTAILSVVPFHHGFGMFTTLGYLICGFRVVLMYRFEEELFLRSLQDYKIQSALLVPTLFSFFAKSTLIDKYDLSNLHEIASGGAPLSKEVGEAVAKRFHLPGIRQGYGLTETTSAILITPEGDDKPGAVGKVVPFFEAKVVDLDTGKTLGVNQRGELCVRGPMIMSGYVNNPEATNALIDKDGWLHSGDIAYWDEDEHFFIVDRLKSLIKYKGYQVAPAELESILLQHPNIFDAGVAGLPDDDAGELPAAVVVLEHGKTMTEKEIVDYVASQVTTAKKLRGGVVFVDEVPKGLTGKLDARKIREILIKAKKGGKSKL

Q: Which results are given for `O=C(NCCCN1CCOCC1)C1(c2ccccc2)CCCC1`?
A: EC50 [1]: > 112 µM (not active); EC50 [2]: > 112 µM (not active)

Q: With `COc1ccc(C(NC(=O)c2ccc(-c3ccccc3)cc2)c2ccccc2)cc1` (stereo unspecified) as the compound, how does the IC50 [3] read?
A: > 50 µM (not active)

Q: Which AC50 (Cytochrome P450 2D6) does the source give for `O=C(O)[C@@H]1[C@@H]2C[C@H]3c4[nH]c5ccccc5c4CCN3C[C@@H]2CC[C@@H]1O` here?
A: 7.94 µM (inconclusive)

Q: And the AC50 (Cytochrome P450 1A2)?
A: 12.6 µM (inconclusive)

Q: With `O=C(N/N=C/c1cccnc1)c1ccc([N+](=O)[O-])cc1` as the compound, how does the AC50 (Cytochrome P450 2D6) read?
A: 14.1 µM (inconclusive)

Q: For `CCOc1ccc(Nc2ccc([N+](=O)[O-])c3nonc23)cc1`, which IC50 (cells) is on record?
A: 5.59 µM (active)

Q: What about the IC50 (Protein skinhead-1) of the same compound?
A: > 100 µM (inactive)

Q: Which AC50 (Cytochrome P450 2D6) does the source give for `CCCN1CCc2cccc3c2[C@@H]1Cc1ccc(O)c(O)c1-3` here?
A: 10 µM (inconclusive)

Q: What about the AC50 (Cytochrome P450 3A4) of the same compound?
A: 12.6 µM (inconclusive)

Q: For `CC1(C)N=C(N)N=C(N)N1c1cccc(OCc2cccc([N+](=O)[O-])c2)c1`, which AC50 (Cytochrome P450 2C19) is on record?
A: inconclusive

Q: And the AC50 (Cytochrome P450 2D6)?
A: 3.16 µM (inconclusive)

Q: What about the AC50 (Cytochrome P450 1A2) of the same compound?
A: 5.01 µM (inconclusive)

Q: For `Cc1ccc2nc(C)c3c(c2c1)COC3`, which IC50 (cells) is on record?
A: > 50 µM (active)

Q: Which EC50 [4] does the source give for `NS(=O)(=O)c1ccc(CCNC(=O)COC(=O)CCc2c[nH]c3ccccc23)cc1` here?
A: 22 µM (active)

Q: For `Cc1ccccc1C(=O)NC(CC(C)C)C(=O)Nc1ccc(S(N)(=O)=O)cc1` (stereo unspecified), which EC50 [1] is on record?
A: > 112 µM (not active)

Q: And the EC50 [2]?
A: > 112 µM (not active)

Q: Which EC50 [5] does the source give for `O=C(c1ccc(F)cc1)c1cc2ccc(O)cc2oc1=O` here?
A: 10.7 µM (active)

Q: What about the EC50 [1] of the same compound?
A: 0.731 µM (active)

Q: And the EC50 [2]?
A: 0.457 µM (active)

Q: And the EC50 (Streptococcus)?
A: 15.7 µM (active)

Q: What does the source list for `CSc1nc2c(c(-c3ccc(O)cc3)c1C#N)CCC2`?
A: EC50 [1]: > 112 µM (not active); EC50 [2]: > 112 µM (not active)

Q: Which IC50 (Protein skinhead-1) does the source give for `Cc1cc(/C=C(\C#N)C(=O)Nc2ccc(F)cc2)c(C)n1-c1ccc(N2CCOCC2)c([N+](=O)[O-])c1` here?
A: > 100 µM (inactive)

Q: For `CC(C)c1onc(C(=O)Nc2cccnc2Cl)c1[N+](=O)[O-]`, which IC50 [3] is on record?
A: 22.5 µM (not active)

Q: For `Cc1ccc(C)c(N2CCN(S(=O)(=O)c3ccc4nc(O)ccc4c3)CC2)c1`, which AC50 [6] is on record?
A: 24.2 µM (active)

Q: Which EC50 [1] does the source give for `O=S(=O)(Nc1ccc(-c2ccc3nncn3n2)cc1)c1ccccc1Cl` here?
A: > 112 µM (not active)

Q: What about the EC50 [2] of the same compound?
A: 51.9 µM (active)

Q: For `COc1ccc(C2=Nc3cccc4cccc(c34)N2)cc1`, which AC50 (Cytochrome P450 2D6) is on record?
A: 1.41 µM (inconclusive)

Q: For `COc1ccc(/C=N/N=C(\N)c2nonc2N)cc1`, which EC50 [1] is on record?
A: 3.82 µM (active)

Q: What about the EC50 [2] of the same compound?
A: 2.67 µM (active)
